Experimental findings from patent US9216957B2, “Androgen receptor antagonists and uses thereof” (SUZHOU KINTOR PHARMACEUTICALS, INC., priority 2011, dated 2015) are described below.

The subject of the assay is Prostate-specific antigen (PSA) production in LNCaP cells. Nature of the assay: PSA Assay (inhibition of PSA production in prostate cancer cells, ELISA). The class given is cell-based, human. The settings on record: Homo sapiens, LNCaP, 72 h, read-out: LNCAP IC50 (uM), inhibition of PSA production, LNCaP cells, R1881 1 ng/ml, three days, seven point assay. The protocol: PSA Assay (Inhibition Test of the Compound of the Present Invention on Prostate-Specific Antigen (PSA) Production in Various Prostate Cancer Cells).
Androgen dependent LNCaP cells were purchased from the American Type Culture Collection (ATCC, Manassas, Va.). These cells were grown in RPMI 1640 medium supplemented with 10% fetal bovine serum (FBS), 100 U/mL penicillin, 100 μg/mL streptomycin, and 0.25 μg/mL amphotericin B. The cells were maintained at 37° C. and 5% CO2. LNCaP cells between passage 20 and 35 were used for experiments. LNCaP is a hormone sensitive cell line. For the PSA assay, human prostate cancer cells LNCaP were seeded in a 96-well plate at a concentration of 5000 cells/100 μl/well. On the following day, Methyltrienolone (R1881, AR agonist) (final concentration 1 ng/ml), test compounds or bicalutamide (Casodex®, AstraZeneca) (final concentration 0.005 to 20 μM) were added. Three days after the addition, the concentration of PSA in the supernatant of the culture solution was measured by ELISA. ELISAs for human PSA in culture medium were performed using the ultra-sensitive assay procedure and reagents in the Active™ PSA assay kit (Diagnostic Systems Laboratories Inc., Webster, Tex.). Culture medium and standards (200 μl/well) were incubated in antibody-coated plates for 2 h at room temperature on a Titer plate shaker at 500-600 rpm. Wells were then washed five times. The HRP conjugate was diluted 1:20 with assay buffer, and 100 μl was added to all wells. The plates were incubated for 30 min at room temperature on the shaker and washed as before, and 100 μl TMB (3,3′,5,5′-tetramethylbenzidine, 0.4 g/l) was added. The plates were incubated for 10 min on the shaker, and the reaction was terminated with 100 μl stop solution. The plates were read using a plate reader at 450 nm with a 650 nm reference filter. PSA levels were normalized for differences in growth of LNCaP cells following various treatments as determined by the MTS assay. IC50 of PSA was calculated based on a seven point assay (concentrations of tested compound) and expressed as micromolar (uM).
On the technique in general: In an ELISA, binding on a coated surface is turned into a signal by an enzyme label.
Regarding `CN(C)C(=O)CCCc1ccc(N2C(=S)N(c3ccc(C#N)c(C(F)(F)F)c3F)C(=O)C2(C)C)cc1` [Example 12, 4-{4-[3-(4-Cyano-2-fluoro-3-trifluoromethyl-phenyl)-5,5-dimethyl-4-oxo-2-thioxo-imidazolidin-1-yl]-phenyl}-N,N-dimethyl-butyramide], the IC50 amounted to 0.61 µM. Then `COc1c(C#N)ccc(N2C(=O)C(C)(C)N(c3ccc(CCCC(=O)N(C)C)cc3)C2=S)c1F` [Example 13, 4-{4-[3-(4-Cyano-2-fluoro-3-methoxy-phenyl)-5,5-dimethyl-4-oxo-2-thioxo-imidazolidin-1-yl]-phenyl}-N,N-dimethyl-butyramide], with 1.06 µM; and `CN(C)C(=O)CCCc1ccc(N2C(=S)N(c3ccc(C#N)c(Cl)c3F)C(=O)C2(C)C)cc1` [Example 14, 4-{4-[3-(3-Chloro-4-cyano-2-fluoro-phenyl)-5,5-dimethyl-4-oxo-2-thioxo-imidazolidin-1-yl]-phenyl}-N,N-dimethyl-butyramide], with 0.69 µM; and `CNC(=O)CCOc1ccc(N2C(=S)N(c3ccc(C#N)c(C(F)(F)F)c3F)C(=O)C2(C)C)cc1` [Example 15, 3-(4-(3-(4-cyano-2-fluoro-3-(trifluoromethyl)phenyl)-5,5-dimethyl-4-oxo-2-thioxoimidazolidin-1-yl)phenoxy)-N-methylpropanamide], with 0.45 µM. For `CNC(=O)CCOc1ccc(N2C(=S)N(c3ccc(C#N)c(Cl)c3F)C(=O)C2(C)C)cc1` [Example 16, 3-(4-(3-(3-chloro-4-cyano-2-fluorophenyl)-5,5-dimethyl-4-oxo-2-thioxoimidazolidin-1-yl)phenoxy)-N-methylpropanamide], the IC50 was 0.58 µM. With `CNC(=O)COCc1ccc(N2C(=S)N(c3ccc(C#N)c(C(F)(F)F)c3F)C(=O)C2(C)C)cc1` [Example 17, 2-((4-(3-(4-cyano-2-fluoro-3-(trifluoromethyl)phenyl)-5,5-dimethyl-4-oxo-2-thioxoimidazolidin-1-yl)benzyl)oxy)-N-methylacetamide], the IC50 stood at 0.53 µM. Turning to `CNC(=O)COCc1ccc(N2C(=S)N(c3ccc(C#N)c(Cl)c3F)C(=O)C2(C)C)cc1` [Example 18, 2-((4-(3-(3-chloro-4-cyano-2-fluorophenyl)-5,5-dimethyl-4-oxo-2-thioxoimidazolidin-1-yl)benzyl)oxy)-N-methylacetamide], the IC50 was 0.56 µM. For `CC1(C)C(=O)N(c2ccc(C#N)c(C(F)(F)F)c2F)C(=S)N1c1ccc(CCCc2ncc[nH]2)cc1` [Example 19, 4-(3-(4-(3-(1H-imidazol-2-yl)propyl)phenyl)-4,4-dimethyl-5-oxo-2-thioxoimidazolidin-1-yl)-3-fluoro-2-(trifluoromethyl)benzonitrile], the IC50 came out at 0.76 µM. Then `CC1(C)C(=O)N(c2ccc(C#N)c(Cl)c2F)C(=S)N1c1ccc(CCCc2ncc[nH]2)cc1` [Example 20, 2-Chloro-3-fluoro-4-(3-{4-[3-(1H-imidazol-2-yl)-propyl]-phenyl}-4,4-dimethyl-5-oxo-2-thioxo-imidazolidin-1-yl)-benzonitrile], with 2.14 µM. Then `COc1c(C#N)ccc(N2C(=O)C(C)(C)N(c3ccc(CCCc4ncc[nH]4)cc3)C2=S)c1F` [Example 21, 3-Fluoro-4-(3-{4-[3-(1H-imidazol-2-yl)-propyl]-phenyl}-4,4-dimethyl-5-oxo-2-thioxo-imidazolidin-1-yl)-2-methoxy-benzonitrile], with 1.83 µM; and `CNC(=O)C(C)(C)CCc1ccc(N2C(=S)N(c3ccc(C#N)c(C(F)(F)F)c3F)C(=O)C2(C)C)cc1` [Example 22, 4-{4-[3-(4-Cyano-2-fluoro-3-trifluoromethyl-phenyl)-5,5-dimethyl-4-oxo-2-thioxo-imidazolidin-1-yl]-phenyl}-2,2,N-trimethyl-butyramide], with 0.6 µM; and `CNC(=O)C(C)(C)CCc1ccc(N2C(=S)N(c3ccc(C#N)c(OC)c3F)C(=O)C2(C)C)cc1` [Example 23, 4-{4-[3-(4-Cyano-2-fluoro-3-methoxy-phenyl)-5,5-dimethyl-4-oxo-2-thioxo-imidazolidin-1-yl]-phenyl}-2,2,N-trimethyl-butyramide], with 0.89 µM. With `CNC(=O)C(C)(C)CCc1ccc(N2C(=S)N(c3ccc(C#N)c(Cl)c3F)C(=O)C2(C)C)cc1` [Example 24, 4-{4-[3-(3-Chloro-4-cyano-2-fluoro-phenyl)-5,5-dimethyl-4-oxo-2-thioxo-imidazolidin-1-yl]-phenyl}-2,2,N-trimethyl-butyramide], the IC50 is 1.09 µM.

For `CNC(=O)C(C)(C)CCc1ccc(N2C(=S)N(c3ccc(C#N)c(C(F)(F)F)c3F)C(=O)C23CCC3)cc1` [Example 25, 4-{4-[7-(4-Cyano-2-fluoro-3-trifluoromethyl-phenyl)-8-oxo-6-thioxo-5,7-diaza-spiro[3.4]oct-5-yl]-phenyl}-2,2,N-trimethyl-butyramide], the IC50 is 0.82 µM. On to `CNC(=O)C(C)(C)CCc1ccc(N2C(=S)N(c3ccc(C#N)c(OC)c3F)C(=O)C23CCC3)cc1` [Example 26, 4-{4-[7-(4-Cyano-2-fluoro-3-methoxy-phenyl)-8-oxo-6-thioxo-5,7-diaza-spiro[3.4]oct-5-yl]-phenyl}-2,2,N-trimethyl-butyramide], for which the IC50 amounted to 0.97 µM.

On to `CNC(=O)C(C)(C)CCc1ccc(N2C(=S)N(c3ccc(C#N)c(Cl)c3F)C(=O)C23CCC3)cc1` [Example 27, 4-{4-[7-(3-Chloro-4-cyano-2-fluoro-phenyl)-8-oxo-6-thioxo-5,7-diaza-spiro[3.4]oct-5-yl]-phenyl}-2,2,N-trimethyl-butyramide], for which the IC50 came to 0.47 µM. For `CC1(C)C(=O)N(c2ccc(C#N)c(C(F)(F)F)c2F)C(=S)N1c1ccc(CCCC#N)c(F)c1` [Example 28, 4-(3-(4-(3-cyanopropyl)-3-fluorophenyl)-4,4-dimethyl-5-oxo-2-thioxoimidazolidin-1-yl)-3-fluoro-2-(trifluoromethyl)benzonitrile], the IC50 was determined as 0.11 µM. For `CC1(C)C(=O)N(c2ccc(C#N)c(Cl)c2F)C(=S)N1c1ccc(CCCC#N)c(F)c1` [Example 29, 2-chloro-4-(3-(4-(3-cyanopropyl)-3-fluorophenyl)-4,4-dimethyl-5-oxo-2-thioxoimidazolidin-1-yl)-3-fluorobenzonitrile] the value was 0.29 µM. In the case of `COc1c(C#N)ccc(N2C(=O)C(C)(C)N(c3ccc(CCCC#N)c(F)c3)C2=S)c1F` [Example 30, 4-(3-(4-(3-cyanopropyl)-3-fluorophenyl)-4,4-dimethyl-5-oxo-2-thioxoimidazolidin-1-yl)-3-fluoro-2-methoxybenzonitrile], the IC50 was 0.29 µM. Then `N#CCCCc1ccc(N2C(=S)N(c3ccc(C#N)c(C(F)(F)F)c3F)C(=O)C23CCC3)cc1F` [Example 31, 4-(5-(4-(3-cyanopropyl)-3-fluorophenyl)-8-oxo-6-thioxo-5,7-diazaspiro[3.4]octan-7-yl)-3-fluoro-2-(trifluoromethyl)benzonitrile], with 0.53 µM. For `COc1c(C#N)ccc(N2C(=O)C3(CCC3)N(c3ccc(CCCC#N)c(F)c3)C2=S)c1F` [Example 32, 4-(5-(4-(3-cyanopropyl)-3-fluorophenyl)-8-oxo-6-thioxo-5,7-diazaspiro[3.4]octan-7-yl)-3-fluoro-2-methoxybenzonitrile] the value was 0.36 µM; for `N#CCCCc1ccc(N2C(=S)N(c3ccc(C#N)c(Cl)c3F)C(=O)C23CCC3)cc1F` [Example 33, 2-chloro-4-(5-(4-(3-cyanopropyl)-3-fluorophenyl)-8-oxo-6-thioxo-5,7-diazaspiro[3.4]octan-7-yl)-3-fluorobenzonitrile], 0.64 µM; for `CNC(=O)C1(CCc2ccc(N3C(=S)N(c4ccc(C#N)c(C(F)(F)F)c4F)C(=O)C3(C)C)cc2)CCC1` [Example 34, 1-(2-{4-[3-(4-Cyano-2-fluoro-3-trifluoromethyl-phenyl)-5,5-dimethyl-4-oxo-2-thioxo-imidazolidin-1-yl]-phenyl}-ethyl)-cyclobutanecarboxylic acid methylamide], 0.62 µM.

Turning to `CNC(=O)C1(CCc2ccc(N3C(=S)N(c4ccc(C#N)c(C(F)(F)F)c4F)C(=O)C34CCC4)cc2)CCC1` [Example 35, 1-(2-{4-[7-(4-Cyano-2-fluoro-3-trifluoromethyl-phenyl)-8-oxo-6-thioxo-5,7-diaza-spiro[3.4]oct-5-yl]-phenyl}-ethyl)-cyclobutanecarboxylic acid methylamide], the IC50 came out at 0.44 µM. In the case of `CC1(C)C(=O)N(c2ccc(C#N)c(C(F)(F)F)c2F)C(=S)N1c1ccc(CCCC#N)nc1` [Example 36, 4-(3-(6-(3-cyanopropyl)pyridin-3-yl)-4,4-dimethyl-5-oxo-2-thioxoimidazolidin-1-yl)-3-fluoro-2-(trifluoromethyl)benzonitrile], the IC50 worked out at 0.35 µM.
